Laboratory results as given in PMC6079014, “Calcium is an essential cofactor for metal efflux by the ferroportin transporter family” (Nature Communications, 2018).

Assays:
human Fpn Q99A = biological target: T1, human Fpn Q99A (Homo sapiens, UniProt Q9NP59, Q99A); assay: 55Fe efflux assay in Xenopus oocytes expressing Q99A mutant human Fpn; type: cell-based; conditions: fit by Eq. (2), ± SEM, read-out: K0.5Ca, half-maximal extracellular Ca2+ concentration for stimulation of 55Fe efflux
T1 construct: expressed in transfected cells; host or cells: Xenopus laevis oocytes injected with mutant Fpn RNA (pOX(+) vector)
T1 sequence (Q9NP59 1-571 Q99A): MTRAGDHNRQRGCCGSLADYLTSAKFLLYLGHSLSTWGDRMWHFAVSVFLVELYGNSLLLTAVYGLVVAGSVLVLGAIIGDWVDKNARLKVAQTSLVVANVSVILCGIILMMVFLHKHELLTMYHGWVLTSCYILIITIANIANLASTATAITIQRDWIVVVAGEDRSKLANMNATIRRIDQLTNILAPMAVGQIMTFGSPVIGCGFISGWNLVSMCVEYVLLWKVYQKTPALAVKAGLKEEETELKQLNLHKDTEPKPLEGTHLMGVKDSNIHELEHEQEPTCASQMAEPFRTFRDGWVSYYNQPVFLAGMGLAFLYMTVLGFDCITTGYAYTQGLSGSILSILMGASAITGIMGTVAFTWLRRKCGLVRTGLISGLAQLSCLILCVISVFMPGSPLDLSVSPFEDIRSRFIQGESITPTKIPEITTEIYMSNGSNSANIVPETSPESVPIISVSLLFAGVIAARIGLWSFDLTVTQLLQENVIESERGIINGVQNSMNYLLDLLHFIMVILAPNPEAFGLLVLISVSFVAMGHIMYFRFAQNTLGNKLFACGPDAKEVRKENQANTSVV
Method: We performed laparotomy and ovariectomy on adult female Xenopus laevis frogs (Nasco, Fort Atkinson, WI) under 2-aminoethylbenzoate methanesulfonate anesthesia (0.2%, by immersion, to effect) following a protocol approved by the University of Cincinnati Institutional Animal Care and Use Committee. Ovarian tissue was isolated and treated for 3 h with […] collagenase A (Roche Diagnostics Corp., Indianapolis, IN) in calcium-free-modified Barths’ medium (MBM) of composition 88 mM NaCl, 1 mM KCl, 2.4 mM NaHCO3, 1.57 mM MgSO4, 0.66 mM NaNO3, 10 mM 4-(2-hydroxyethyl)-1-piperazineethanesulfonic acid (HEPES), buffered to pH 7.5 by using 2-amino-2-hydroxymethyl-propane-1,3-diol (Tris base). […]
We measured metal efflux from oocytes expressing Fpn by using a radiotracer assay. […]
To initiate the efflux assay, we placed oocytes in standard efflux medium of composition 100 mM NaCl, 1 mM KCl, 2 mM CaCl2, 1 mM MgCl2, 0.5 mM bathophenanthroline disulfonic acid (BPS), 1 mM nitrilotriacetic acid (NTA) trisodium salt, 50 μg/ml apotransferrin (ApoTf) (R&D Systems Inc., Minneapolis, MN), buffered with 0–5 mM MES, and 0–5 mM N′,N′-diethylpiperazine to obtain pH 7.5, with the following exceptions. […] The corresponding oocytes were rinsed twice in ice-cold medium (without BPS), solubilized with 5% (w/v) sodium dodecyl sulfate, and counted (Nt). […]

BbFpn D24A = BbFpn D24A (Bdellovibrio bacteriovorus, UniProt Q6MLJ0, D24A); assay: Isothermal titration calorimetry, D24A BbFpn; type: binding, Bdellovibrio bacteriovorous
Chain of BbFpn D24A (Q6MLJ0 whole entry D24A): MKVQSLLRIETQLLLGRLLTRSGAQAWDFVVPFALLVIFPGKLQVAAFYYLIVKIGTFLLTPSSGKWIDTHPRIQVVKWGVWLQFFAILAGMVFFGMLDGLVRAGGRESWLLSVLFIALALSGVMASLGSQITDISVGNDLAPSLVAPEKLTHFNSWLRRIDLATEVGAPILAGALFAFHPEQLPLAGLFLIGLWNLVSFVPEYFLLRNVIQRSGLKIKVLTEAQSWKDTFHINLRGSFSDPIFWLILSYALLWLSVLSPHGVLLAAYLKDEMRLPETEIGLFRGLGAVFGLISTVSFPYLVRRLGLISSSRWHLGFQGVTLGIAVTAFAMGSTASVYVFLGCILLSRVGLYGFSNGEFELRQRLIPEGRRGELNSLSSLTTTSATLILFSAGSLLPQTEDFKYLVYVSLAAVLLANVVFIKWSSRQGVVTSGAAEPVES

## [Ca+2] [Ca^2+, calcium]
Human Fpn Q99A
  EC50: 2.4 mM
BbFpn D24A
  Binding to D24A BbFpn by ITC (in words): complete loss
